In turn, `CCOc1ccc(NC(=O)N(CCN(C)C)c2nc(CC)c(S(=O)(=O)NC)s2)cc1` had a melting point of 208 °C.

Molecule `Cc1nc(N(C)C(=O)Nc2ccc(N3CCOCC3)cc2)sc1S(=O)(=O)N1CCCCC1` had a melting point of 206 °C. `CCOc1ccc(NC(=O)N(C)c2ncc(S(=O)(=O)N(C)C)s2)cc1` came in with a melting point of 194 °C.

`CCCNS(=O)(=O)c1sc(N(CCC)C(=O)Nc2ccc(-c3ccccc3)cc2)nc1C`: the melting point was found to be 137 °C. `Cc1nc(N(C)C(=O)Nc2ccc(N3CC=CC3)cc2)sc1S(=O)(=O)N(C)C` yielded a melting point of 185 °C. `COCCN(C(=O)Nc1ccc(N2CCOCC2)cc1)c1nc(C)c(S(N)(=O)=O)s1` showed a melting point of 201 °C. For the molecule `CCOc1ccc(NC(=O)N(C)c2nc(C)c(S(=O)(=O)NCc3ccc4c(c3)OCO4)s2)cc1`, the melting point was 178 °C. As for `CNS(=O)(=O)c1sc(N(Cc2ccncc2)C(=O)Nc2ccc(N3CCCC3)cc2)nc1C`, the melting point was found to be 208 °C. The same measure for `CCN(C(=O)Nc1ccc(N2CCOCC2)cc1)c1nc(Cl)c(S(=O)(=O)N(C)C)s1`: 190 °C; for `CCCN(C(=O)Nc1ccc(-c2ccccc2)cc1)c1nc(C)c(S(=O)(=O)NC)s1`: 156 °C. The molecule `CCOc1ccc(NC(=O)N(CCOC)c2nc(C)c(S(=O)(=O)NC3CC3)s2)cc1` yielded a melting point of 164 °C. As for `CNS(=O)(=O)c1sc(N(C)C(=O)Nc2ccc(N3CCOCC3)cc2)nc1Cl`, the figure is 228 °C. Consider `Cc1nc(N(C)C(=O)Nc2ccc(N3CCCC3=O)cc2)sc1S(=O)(=O)N(C)C`, for which the melting point was 195 °C (dec.). For the molecule `CCOc1ccc(NC(=O)N(CC2COc3ccccc3O2)c2nc(C)c(S(=O)(=O)NC3CC3)s2)cc1` (stereo not drawn), the melting point turned out to be 170 °C. Regarding `CNS(=O)(=O)c1sc(N(C)C(=O)Nc2ccc(-c3ccccc3C)cc2C)nc1C`, the melting point was 148 °C. As for `CN(C(=O)Nc1ccc(Oc2ccccc2)cc1)c1nc(Cl)c(S(=O)(=O)N(C)C)s1`, the figure is 127 °C; as for `CCOC(=O)N1CC2CCN(c3ccc(NC(=O)N(C)c4nc(S(=O)(=O)NC)c(C)s4)cc3)C2C1` (stereo not drawn), 153 to 154 °C; as for `COCCN(C(=O)Nc1ccc(-c2ccccc2)cc1)c1nc(C)c(S(N)(=O)=O)s1` [151], 167 °C. As for `CCCOc1ccc(NC(=O)N(C)C2=CC(C)=C(S(N)(=O)=O)C2)cc1`, the figure is 200 °C. For `CCOc1ccc(NC(=O)N(CCCN)c2nc(C)c(S(=O)(=O)NC)s2)cc1.Cl`, the melting point stood at 150 °C. As for `CNS(=O)(=O)c1sc(N(CCN(C)C)C(=O)Nc2ccc(-c3ccccc3)cc2)nc1C`, the melting point was found to be 154 °C. The molecule `CCOc1ccc(NC(=O)N(CCCO)c2nc(C)c(S(=O)(=O)NC)s2)cc1` returned a melting point of 161 °C.

In the case of `CCOc1ccc(NC(=O)N(CCCCO)c2nc(C)c(S(=O)(=O)NC)s2)cc1`, the melting point was 164 °C. `Cc1nc(N(C)C(=O)Nc2ccc(N3CCSCC3)cc2)sc1S(=O)(=O)N(C)C` came in with a melting point of 196 °C.

The record behind these values is US6500817B1, “Thiazolyl urea derivatives and their utilization as antiviral agents” (Bayer Aktiengesellschaft, priority 1999, dated 2002).
